Patent US20260071190A1, “SARS CORONAVIRUS 2 R[…] […] GENES, DERIVED FROM GH CLADE SARS CORONAVIRUS 2 OF KOREAN ISOLATE, AND THE PRODUCTION METHOD THEREFOR” (RpexBio, Inc., priority 2022, published 2026)

Test system: rSARS-COV-2/YS006_Nluc
Assay type: cell-based, SARS coronavirus 2
Conditions: compared to healthy human-derived IgG control, FIG. 4D

etesevimab: Eli Lilly's recombinant monoclonal antibody for the treatment of SARS coronavirus 2
inhibition of viral entry into cells / reporter expression: inhibit viral entry into cells and reduce reporter expression as its concentration increased
